Data: patent publication US20080039461A1, “Treatment of pain by inhibition of p38 map kinase” (priority 2002, published 2008)
Read-outs that look alike come from different tables or passages of the source.

Legend:
[1] = tested on: thermal hyperalgesia; assay: thermal hyperalgesia, Plantar test (Hargreaves), intraplantar carrageenan; type: in vivo, Sprague Dawley Rats
Experimental: (§1) The effects of p38 MAP kinase inhibitors on Mechanical and Thermal Hyperalgesia were evaluated as follows. Sprague Dawley Rats were evaluated in carageenan induced models whereby an intraplantar injection of carageenan was made into the left paw. At approximately 2 and 4 hour post carageenan, the left hind limb of each rat was assessed for the development of thermal hyperalgesia relative to a p38 MAP kinase inhibitor (SC), vehicle, indomethacin, and the vehicle for indomethacin. Indomethacin, a known nonsteroidal analgesic, was used as a control reference in this study. Assessment of mechanical and thermal hyperalgesia was accomplished through the use of a Randall Selitto Analgesiometer and the Hargreaves Plantar Device, respectively. Approximately 10 minutes after intraperitoneal dosing, or 30 minutes following oral indomethacin treatment, each animal was lightly anaesthetized (isoflurane in oxygen) and an intraplantar injection of carageenan was made into the left paw. Animals were allowed to recover from anesthesia. As set forth above in the carageenan model, the effect of SC was evaluated with respect to attenuation of the development of thermal hyperalgesia at either of the 2 and 4 hours post-carrageenan time points tested. As above with respect to mechanical hyperalgesia, observation of statistically significant thermal hyperalgesia development was made at both the 2 and 4 hour periods (8.2±1.5 s; P≦0.05 and 7.0±1.5 s; P≦0.01, respectively), compared to vehicle pre dose measurements (12.7±1.0 s). […] As set forth in Example 2 above, Sprague Dawley rats were evaluated in the intraplantar carageenan model. The animals were administered the p38 MAP kinase inhibitor SA, vehicle, indomethacin, and the vehicle for indomethacin. After dosing, the animals were assessed for the development of mechanical hyperalgesia and thermal hyperalgesia using the Randall Selitto Analgesiometer and the Hargreaves Plantar Device, respectively.

[2] = tested on: mechanical hyperalgesia; assay: mechanical hyperalgesia, Randall Selitto test, intraplantar carrageenan; type: in vivo, Sprague Dawley Rats
Experimental: as §1, with “anesthesia. Mechanical hyperalgesia was tested using the Randall-Selittlo test. Randall, L. & Selitto, J., Arch Int Pharmacodyn (1957) 110:409-419. The carageenan model was established as” for “anesthesia. As”, “forth above. […] In” for “forth above in”, “the same animals treated with SC,” for “the carageenan model,”, “the paw withdrawal threshold increased from a” for “the effect of SC was evaluated with respect to attenuation of the development of thermal hyperalgesia at either of the 2 and 4 hours post-carrageenan time points tested. As above with respect to mechanical hyperalgesia, observation of statistically significant thermal hyperalgesia development was made at both the 2 and 4 hour periods (8.2±1.5 s; P≦0.05 and 7.0±1.5 s; P≦0.01, respectively), compared to vehicle”, “dose threshold of 159±8 g to 177±17 g, 2 hours post-carrageenan.” for “dose measurements (12.7±1.0 s).”

[3] = tested on: discomfort of a dental procedure; assay: pain associated with a dental procedure; type: in vivo; conditions: approximately 1 hours before the procedure; SF 40 mg/kg, SG 20 mg/kg
Experimental: A subject scheduled for a dental procedure, the filling of a cavity in a tooth, is administered approximately 40 mg/kg of the p38 MAP kinase inhibitor SF approximately 1 hours before the procedure is to begin. No other analgesics or anesthetics are administered.
A subject scheduled for a dental procedure, the filling of a cavity in a tooth, is administered approximately 20 mg/kg of the p38 MAP kinase inhibitor SG approximately 1 hours before the procedure is to begin. No other analgesics or anesthetics are administered.

[4] = biological target: T1, p38 MAPK (Homo sapiens, UniProt Q16539); assay: p38 MAPK phosphorylation assay (similar to Kumar); type: biochemical
T1 construct: expressed in transfected cells; host or cells: HeLa (kinase immunoprecipitated from lysates of transfected, stimulated cells)
Experimental: Alternative assays involving in vitro analysis of potential inhibitors include those where cells (HeLa) transfected with DNA coding for relevant kinases can be activated with substances such as sorbitol, IL-1, TNF, or PMA (phorbol myristate acetate). After immunoprecipitation of cell lysates, equal aliquots of immune complexes of the kinases are pre-incubated for an adequate time with a specific concentration of the potential inhibitor followed by addition of kinase substrate buffer mix containing labeled ATP and GST-ATF2 or MBP. After incubation, kinase reactions are ceased by the addition of SDS loading buffer. Phosphorylated substrate is resolved through SDS-PAGE and visualized and quantitated in a phosphorimager. Both p38 regulation, in terms of phosphorylation, and IC50 values can be determined by quantitation. […] Res. Commun. […]

[5] = tested on: post-activity related discomfort; assay: pain associated with athletic endeavor; type: in vivo; conditions: before a long distance race; SH 50 mg/kg, SI 20 mg/kg, SM 40 mg/kg
Experimental: A subject preparing for an athletic endeavor, the running of a long distance race, is administered approximately 50 mg/kg of SH approximately 30 minutes before the endeavor is to begin. No other analgesics or anesthetics are administered. The athlete participates in and completes the endeavor.
A subject preparing for an athletic endeavor, the running of a long distance race, is administered approximately 20 mg/kg of SI approximately 1 hours before the endeavor is to begin. No other analgesics or anesthetics are administered. The athlete participates in and completes the endeavor.
A subject preparing for an athletic endeavor, the running of a long distance race, is administered approximately 40 mg/kg of SM approximately 1 hours before the endeavor is to begin. No other analgesics or anesthetics are administered. The athlete participates in and completes the endeavor.

[6] = tested on: NMDA-induced hyperalgesia; assay: hyperalgesia induced by intrathecal NMDA; type: in vivo, rat; conditions: IT NMDA 0.3 μg; MK801 10 μg, IT SD 3-60 μg, IT SB 1-30 μg, SA 10 μg
Source text: Male Sprague-Dawley rats (300-350 g) were implanted under isoflurane anesthesia with lumbar polyethylene (PE-10) catheters according to a modified method originally described in Physiol. Behav. 17, 1031 (1976). […] IT saline and 5% DMSO alone had no effect on behavior or protein expression/phosphorylation.

[7] = tested on: carrageenan-induced thermal hyperalgesia; assay: carrageenan-induced thermal hyperalgesia (Hargreaves-type device); type: in vivo, rat; conditions: intravenous administration, pre injury
Experimental: Hyperalgesia was induced in the rat's right hindpaw by intraplantar injection of carrageenan (2 mg in 0.1 ml of a […] solution (weight/volume) in physiological saline). To assess the thermally evoked paw withdrawal time, a device modeled after that described by Hargreaves (1988) was used. See Hargreaves K, Dubner R, Brown F, Flores C, Joris J. A new and sensitive method for measuring thermal nociception in cutaneous hyperalgesia, Pain, 32, 77-88 (1988). The device consisted of a glass surface on top of which the rats were placed. The glass surface was heated by a focused projection bulb below the glass surface. The first sign of discomfort is usually expressed as an attempt to sit up and lick the forepaws by the experimental animal. This response indicates a threshold of pain under the predetermined conditions. Dancing and jumping about by an undrugged animal is an indicator of unbearable pain; whereas drugged animals more commonly withdraw the hind paws and keep them close to their abdomen. A timer was actuated with the light source and latency defined as the time required for the paw to be withdrawn from the glass surface. See Dirig D M, Isakson P C, and Yaksh T L. J Pharmacol Exp Ther., 285, 1031-8 (1998).

[8] = tested on: recovery from the procedure; assay: adjunct to opioid anesthesia for Cesarean section; type: in vivo; conditions: in opioid solution, subarachnoid; SL 60 mg/kg, SJ 630 mg/kg, SK 50 mg/kg
Experimental: A person scheduled for a Cesarean section is prepared according to standard guidelines. A subarachnoid block is performed in the sitting position, following the administration of 1-2 liters of crystalloid solution. Skin infiltration with local anaesthetic is performed at the L2-3 or L3-L4 interspace. A spinal needle introducer is used to facilitate insertion of the needle into the patient. The needle is introduced into the epidural space and perforates the dura. The emergence of cerebrospinal fluid indicates proper placement of the needle. An opiod solution containing approximately 60 mg/kg of SL is administered and injected slowly of a ten to fifteen second time interval. […] The needle is then removed and resulting wound is dressed. The Cesarean section proceeds according to a standard protocol.
A person scheduled for a Cesarean section is prepared according to standard guidelines. A subarachnoid block is performed in the sitting position, following the administration of 1-2 liters of crystalloid solution. Skin infiltration with local anaesthetic is performed at the L2-3 or L3-L4 interspace. A spinal needle introducer is used to facilitate insertion of the needle into the patient. The needle is introduced into the epidural space and perforates the dura. The emergence of cerebrospinal fluid indicates proper placement of the needle. An opiod solution containing approximately 630 mg/kg of SJ is administered and injected slowly of a ten to fifteen second time interval. […] The needle is then removed and resulting wound is dressed. The Cesarean section proceeds according to a standard protocol.
A person scheduled for a Cesarean section is prepared according to standard guidelines. A subarachnoid block is performed in the sitting position, following the administration of 1-2 liters of crystalloid solution. Skin infiltration with local anaesthetic is performed at the L2-3 or L3-L4 interspace. A spinal needle introducer is used to facilitate insertion of the needle into the patient. The needle is introduced into the epidural space and perforates the dura. […]

[9] = assay similar to the phosphorylation assay (Kumar), read-out: p38 MAPK activity, relative IC50 value

T1 sequence (Q16539 whole entry): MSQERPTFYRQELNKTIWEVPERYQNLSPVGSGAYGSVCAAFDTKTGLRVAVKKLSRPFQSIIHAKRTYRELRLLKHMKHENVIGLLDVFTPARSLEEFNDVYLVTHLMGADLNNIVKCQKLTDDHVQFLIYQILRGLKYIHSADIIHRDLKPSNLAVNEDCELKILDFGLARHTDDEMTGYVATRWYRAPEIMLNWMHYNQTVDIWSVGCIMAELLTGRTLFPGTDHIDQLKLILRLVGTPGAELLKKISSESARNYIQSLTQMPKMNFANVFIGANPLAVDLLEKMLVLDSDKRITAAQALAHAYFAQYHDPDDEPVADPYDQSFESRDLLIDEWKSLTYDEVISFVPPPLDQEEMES

SMILES: C[C@@H]1CN(Cc2ccc(F)cc2)[C@@H](C)CN1C(=O)c1cc2c(C(=O)C(=O)N(C)C)cn(C)c2cc1Cl [SC]
- withdrawal latency ([1]; Example 2, first of two dose levels (not given), 2 hours): 11.5 ± 1.1 s
- withdrawal latency ([1]; Example 2, first of two dose levels (not given), 4 hours): 10.2 ± 1.5 s
- withdrawal latency ([1]; Example 2, second of two dose levels (not given), 2 hours): 11.6 ± 1.1 s
- withdrawal latency ([1]; Example 2, second of two dose levels (not given), 4 hours): 10.2 ± 0.9 s
- paw withdrawal threshold ([2]; Example 2, SC intraperitoneal, 2 hours post-carrageenan): 177 ± 17 g
- paw withdrawal threshold ([2]; Example 2, SC intraperitoneal, 4 hour post-carrageenan): 153 ± 14 g

SMILES: COc1ccc2c(c1)c(CC(=O)O)c(C)n2C(=O)c1ccc(Cl)cc1 [indomethacin, reference compound]
- increase of withdrawal latency ([1]; Example 2, 10 mg/kg p.o., 2 hours post-carrageenan): not significant
- withdrawal latency ([1]; Example 2, 10 mg/kg p.o., 4 hours): 12.5 ± 1.4 s
- withdrawal latency ([1]; Example 3, 10 mg/kg p.o., 2 hours): 13.1 ± 0.9 s
- withdrawal latency ([1]; Example 3, 10 mg/kg p.o., 4 hours): 9.3 ± 1.3 s
- paw withdrawal threshold ([2]; Example 2, oral 10 mg/kg, 2 hours): 180 ± 21 g
- paw withdrawal threshold ([2]; Example 2, oral 10 mg/kg, 4 hours): 188 ± 17 g
- paw withdrawal threshold ([2]; Example 3, oral 10 mg/kg, 4 hours): 177 ± 16 g

SMILES: COc1cc2c(cc1C(=O)N1CCC(Cc3ccc(F)cc3)CC1)c(C(=O)C(=O)N1CCN(C)CC1)cn2C [SG]
- discomfort during dental procedure [3]: reduced level of discomfort
- IC50 [4, 9]: < 5 nM

SMILES: COc1cc2c(cc1C(=O)N1CC(C)C(Cc3ccc(F)cc3)CC1C)c(C(=O)C(=O)N(C)C)cn2C (stereo not drawn) [SA]
- attenuation of thermal hyperalgesia ([1]; Example 3, oral, lower dose levels): no significant attenuation
- withdrawal latency ([1]; Example 3, oral, 4 hours): 11.1 ± 1.4 s
- paw withdrawal threshold ([2]; Example 3, oral, 30 minutes prior to carrageenan, 4 hours): 159 ± 19 g
- IC50 [4, 9]: < 5 nM

SMILES: Cn1cc(C(=O)C(=O)N2CCCC2)c2cc(C(=O)N3CCC(Cc4ccc(F)cc4)CC3)c(Cl)cc21 [SH]
- post-activity related discomfort [5]: reduced level of post-activity related discomfort
- IC50 [4, 9]: < 5 nM

SMILES: C[C@]12N[C@H](Cc3ccccc31)c1ccccc12 [MK801]
- hyperalgesia induced by IT NMDA [6]: reversed

SMILES: COc1cc2[nH]cc(C(=O)C(=O)N(C)C)c2cc1C(=O)N1CC(C)N(Cc2ccc(F)cc2)CC1C (stereo not drawn) [SE]
- carageenan induced hyperalgesia [7]: Attenuation of the carageenan induced hyperalgesia
- IC50 [4, 9]: < 5 nM

SMILES: Cc1[nH]c2cc(Cl)c(C(=O)N3CCC(Cc4ccc(F)cc4)CC3)cc2c1C(=O)C(=O)N1CCN(C)CC1 [SL]
- recovery after Cesarean section [8]: recovers more rapidly from the procedure
- IC50 [4, 9]: < 5 nM

SMILES: COc1cc2c(cc1C(=O)N1CCC(=Cc3ccc(F)cc3)CC1)c(C(=O)C(=O)N(C)C)cn2C [SM]
- post-activity related discomfort [5]: reduced level of post-activity related discomfort
- IC50 [4, 9]: < 5 nM

SMILES: COCn1cc(C(=O)C(=O)N(C)C)c2cc(C(=O)N3C[C@H](C)N(Cc4ccc(F)cc4)C[C@H]3C)c(OC)cc21 [SI]
- post-activity related discomfort [5]: reduced level of post-activity related discomfort
- IC50 [4]: < 5 nM

SMILES: COc1cc2c(cc1C(=O)N1CCC(Cc3ccc(F)cc3)CC1)c(C(=O)C(=O)O)cn2C [SF]
- discomfort during dental procedure [3]: reduced level of discomfort
- IC50 [4, 9]: < 5 nM

SMILES: C[C@@H]1CN(Cc2ccc(F)cc2)[C@@H](C)CN1C(=O)c1cc2c(C(=O)C(=O)N3CCOCC3)cn(C)c2cc1Cl [SJ]
- recovery after Cesarean section [8]: recovers more rapidly from the procedure
- IC50 [4, 9]: < 5 nM

SMILES: COc1cc2[nH]cc(C(=O)C(=O)N3CCOCC3)c2cc1C(=O)N1CCC(Cc2ccc(F)cc2)CC1 [SK]
- recovery after Cesarean section [8]: recovers more rapidly from the procedure
- IC50 [4, 9]: < 5 nM
